{
  "source": "ChEMBL document CHEMBL1201862",
  "about": "“PubChem BioAssay data set” (2004)",
  "assay_in_all_cases": "NCI-60 cell line screen, 48 h",
  "key": {"786-0": {"system": "786-0"}, "A498": {"system": "A498"}, "A549": {"system": "A549"}, "ACHN": {"system": "ACHN"}, "BT-549": {"system": "BT-549"}, "CAKI-1": {"system": "CAKI-1"}, "CCRF-CEM": {"system": "CCRF-CEM"}, "COLO 205": {"system": "COLO 205"}, "DU-145": {"system": "DU-145"}, "EKVX": {"system": "EKVX"}, "HCC 2998": {"system": "HCC 2998"}, "HCT-116": {"system": "HCT-116"}, "HCT-15": {"system": "HCT-15"}, "HL-60": {"system": "HL-60"}, "HOP-62": {"system": "HOP-62"}, "HOP-92": {"system": "HOP-92"}, "HT-29": {"system": "HT-29"}, "Hs-578T": {"system": "Hs-578T"}, "IGROV-1": {"system": "IGROV-1"}, "K562": {"system": "K562"}, "KM12": {"system": "KM12"}, "LOX IMVI": {"system": "LOX IMVI"}, "M14": {"system": "M14"}, "MCF7": {"system": "MCF7"}, "MDA-MB-231": {"system": "MDA-MB-231"}, "MDA-MB-435": {"system": "MDA-MB-435"}, "MDA-N": {"system": "MDA-N"}, "MOLT-4": {"system": "MOLT-4"}, "Malme-3M": {"system": "Malme-3M"}, "NCI-H226": {"system": "NCI-H226"}, "NCI-H23": {"system": "NCI-H23"}, "NCI-H460": {"system": "NCI-H460"}, "NCI-H522": {"system": "NCI-H522"}, "NCI/ADR-RES": {"system": "NCI/ADR-RES"}, "OVCAR-3": {"system": "OVCAR-3"}, "OVCAR-4": {"system": "OVCAR-4"}, "OVCAR-5": {"system": "OVCAR-5"}, "OVCAR-8": {"system": "OVCAR-8"}, "PC-3": {"system": "PC-3"}, "RPMI-8226": {"system": "RPMI-8226"}, "RXF 393": {"system": "RXF 393"}, "SF-268": {"system": "SF-268"}, "SF-295": {"system": "SF-295"}, "SF-539": {"system": "SF-539"}, "SK-MEL-28": {"system": "SK-MEL-28"}, "SK-MEL-5": {"system": "SK-MEL-5"}, "SK-OV-3": {"system": "SK-OV-3"}, "SN12C": {"system": "SN12C"}, "SNB-19": {"system": "SNB-19"}, "SNB-75": {"system": "SNB-75"}, "SR": {"system": "SR"}, "SW-620": {"system": "SW-620"}, "T47D": {"system": "T47D"}, "TK-10": {"system": "TK-10"}, "U-251": {"system": "U-251"}, "UACC-257": {"system": "UACC-257"}, "UACC-62": {"system": "UACC-62"}, "UO-31": {"system": "UO-31"}},
  "note": "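48-hour exposure; five concentrations; linearly interpolated endpoints. Abbreviation: GI50, concentration required for 50% inhibition of growth.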 The source made the active and inactive calls. Cut-off read from the data, not from the text of the source: active = GI50 up to about 1.1 µM and inactive = higher.",
  "data": [
    {"compound": "Cc1c(Cl)nc(Cl)nc1Cl", "values": [
      {"measurement": "GI50", "setting": "786-0", "value": "1.48 µM (inactive)"},
      {"measurement": "GI50", "setting": "A498", "value": "3.8 µM (inactive)"},
      {"measurement": "GI50", "setting": "A549", "value": "2.69 µM (inactive)"},
      {"measurement": "GI50", "setting": "ACHN", "value": "421 nM (active)"},
      {"measurement": "GI50", "setting": "BT-549", "value": "3.65 µM (inactive)"},
      {"measurement": "GI50", "setting": "CAKI-1", "value": "273 nM (active)"},
      {"measurement": "GI50", "setting": "CCRF-CEM", "value": "238 nM (active)"},
      {"measurement": "GI50", "setting": "COLO 205", "value": "307 nM (active)"},
      {"measurement": "GI50", "setting": "DU-145", "value": "3.63 µM (inactive)"},
      {"measurement": "GI50", "setting": "EKVX", "value": "1.9 µM (inactive)"},
      {"measurement": "GI50", "setting": "HCC 2998", "value": "1.2 µM (inactive)"},
      {"measurement": "GI50", "setting": "HCT-116", "value": "1.14 µM (inactive)"},
      {"measurement": "GI50", "setting": "HCT-15", "value": 287, "unit": "nM"},
      {"measurement": "GI50", "setting": "HL-60", "value": "1.94 µM (inactive)"},
      {"measurement": "GI50", "setting": "HOP-62", "value": "4.97 µM (inactive)"},
      {"measurement": "GI50", "setting": "HOP-92", "value": "2.12 µM (inactive)"},
      {"measurement": "GI50", "setting": "HT-29", "value": "818 nM (active)"},
      {"measurement": "GI50", "setting": "Hs-578T", "value": "3.12 µM (inactive)"},
      {"measurement": "GI50", "setting": "IGROV-1", "value": "3.01 µM (inactive)"},
      {"measurement": "GI50", "setting": "K562", "value": "600 nM (active)"},
      {"measurement": "GI50", "setting": "KM12", "value": "2.44 µM (inactive)"},
      {"measurement": "GI50", "setting": "LOX IMVI", "value": "373 nM (active)"},
      {"measurement": "GI50", "setting": "M14", "value": "857 nM (active)"},
      {"measurement": "GI50", "setting": "MCF7", "value": "984 nM (active)"},
      {"measurement": "GI50", "setting": "MDA-MB-231", "value": "1.43 µM (inactive)"},
      {"measurement": "GI50", "setting": "MDA-MB-435", "value": "2.19 µM (inactive)"},
      {"measurement": "GI50", "setting": "MDA-N", "value": "2.18 µM (inactive)"},
      {"measurement": "GI50", "setting": "MOLT-4", "value": "321 nM (active)"},
      {"measurement": "GI50", "setting": "Malme-3M", "value": "1.05 µM (active)"},
      {"measurement": "GI50", "setting": "NCI-H226", "value": "3.21 µM (inactive)"},
      {"measurement": "GI50", "setting": "NCI-H23", "value": "2.18 µM (inactive)"},
      {"measurement": "GI50", "setting": "NCI-H460", "value": "5.71 µM (inactive)"},
      {"measurement": "GI50", "setting": "NCI-H522", "value": "44 nM (active)"},
      {"measurement": "GI50", "setting": "NCI/ADR-RES", "value": "1.36 µM (inactive)"},
      {"measurement": "GI50", "setting": "OVCAR-3", "value": "1.85 µM (inactive)"},
      {"measurement": "GI50", "setting": "OVCAR-4", "value": "1.46 µM (inactive)"},
      {"measurement": "GI50", "setting": "OVCAR-5", "value": "1.88 µM (inactive)"},
      {"measurement": "GI50", "setting": "OVCAR-8", "value": "2.48 µM (inactive)"},
      {"measurement": "GI50", "setting": "PC-3", "value": "2 µM (inactive)"},
      {"measurement": "GI50", "setting": "RPMI-8226", "value": "2.38 µM (inactive)"},
      {"measurement": "GI50", "setting": "RXF 393", "value": "1.87 µM (inactive)"},
      {"measurement": "GI50", "setting": "SF-268", "value": "1.73 µM (inactive)"},
      {"measurement": "GI50", "setting": "SF-295", "value": "5.7 µM (inactive)"},
      {"measurement": "GI50", "setting": "SF-539", "value": "2.43 µM (inactive)"},
      {"measurement": "GI50", "setting": "SK-MEL-28", "value": "3.18 µM (inactive)"},
      {"measurement": "GI50", "setting": "SK-MEL-5", "value": "2.16 µM (inactive)"},
      {"measurement": "GI50", "setting": "SK-OV-3", "value": "3.91 µM (inactive)"},
      {"measurement": "GI50", "setting": "SN12C", "value": "2.69 µM (inactive)"},
      {"measurement": "GI50", "setting": "SNB-19", "value": "3.81 µM (inactive)"},
      {"measurement": "GI50", "setting": "SNB-75", "value": "5.68 µM (inactive)"},
      {"measurement": "GI50", "setting": "SR", "value": "434 nM (active)"},
      {"measurement": "GI50", "setting": "SW-620", "value": "1.27 µM (inactive)"},
      {"measurement": "GI50", "setting": "T47D", "value": "1.58 µM (inactive)"},
      {"measurement": "GI50", "setting": "TK-10", "value": "3.51 µM (inactive)"},
      {"measurement": "GI50", "setting": "U-251", "value": "1.77 µM (inactive)"},
      {"measurement": "GI50", "setting": "UACC-257", "value": "2.3 µM (inactive)"},
      {"measurement": "GI50", "setting": "UACC-62", "value": "4 µM (inactive)"},
      {"measurement": "GI50", "setting": "UO-31", "value": "409 nM (active)"}
    ]}
  ]
}
